These results are taken from US9044453B2, “Long-acting injectable moxidectin formulations and novel moxidectin crystal forms” (MERIAL, INC., priority 2011, dated 2015).

The series is described as follows: Moisture Sorption Gravimetric Analysis (SGA), hygroscopicity. Type of series: physicochemical. Particulars: isothermal 25° C., 5 to 95 % RH. Here is the method: Moisture Sorption Gravimetric Analysis (SGA). Utilizing a dynamic SGA100 from VTI, adsorption and desorption profiles were obtained with the following conditions: 1) Isothermal @ 25° C.; 2) Maximum Equilibration Time of 10 minutes; 3) 0.0010 wt % in 5 minutes; and 4) % RH (Relative Humidity) Steps of 5 to 95, and 95 to 5 @ 5% increments.

Regarding `CO/N=C1\C[C@]2(C[C@@H]3C[C@@H](C/C=C(\C)C[C@@H](C)/C=C/C=C4\CO[C@@H]5[C@H](O)C(C)=C[C@@H](C(=O)O3)[C@]45O)O2)O[C@H](/C(C)=C/C(C)C)[C@H]1C` [Crystalline moxidectin, moxidectin], the hygroscopicity entry is “almost non-hygroscopic”.
Under `CO/N=C1\C[C@]2(C[C@@H]3C[C@@H](C/C=C(\C)C[C@@H](C)/C=C/C=C4\CO[C@@H]5[C@H](O)C(C)=C[C@@H](C(=O)O3)[C@]45O)O2)O[C@H](/C(C)=C/C(C)C)[C@H]1C` [amorphous moxidectin, moxidectin] stands “slightly hygroscopic”.
